What was measured:
rat P2X3 receptor = target: T1, rat P2X3 receptor (Rattus norvegicus, UniProt P49654); experiment: P2X3/P2X2/3 FLIPR (Fluorometric Imaging Plate Reader) Assay, P2X3; format: cell-based; conditions: CHO-K1 cells transfected with rat P2X3; agonist α,β-meATP 1 μM; Table 1; read-out: P2X3 pKi (converted)
T1 construct: expressed in transfected cells; host or cells: CHO-K1
T1 sequence (P49654 1-397): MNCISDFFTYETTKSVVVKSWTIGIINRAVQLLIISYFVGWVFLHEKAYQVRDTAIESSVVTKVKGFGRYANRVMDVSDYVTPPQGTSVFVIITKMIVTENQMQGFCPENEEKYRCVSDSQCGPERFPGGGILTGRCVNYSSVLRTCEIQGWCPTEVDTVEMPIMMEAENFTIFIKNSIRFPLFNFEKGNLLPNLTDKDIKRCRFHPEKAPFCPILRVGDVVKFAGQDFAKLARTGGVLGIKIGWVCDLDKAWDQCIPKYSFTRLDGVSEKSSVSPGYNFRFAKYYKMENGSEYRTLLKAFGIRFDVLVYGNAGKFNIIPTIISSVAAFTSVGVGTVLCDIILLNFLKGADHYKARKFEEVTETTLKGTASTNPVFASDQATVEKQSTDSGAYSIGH
Summary of the method: (§1)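 Transfected CHO-K1 (rat P2X3; human P2X2/3), Fluo-3 AM 2 μM 1 h 37 °C, buffer HBSS/10 mM HEPES/2 mM CaCl2/2.5 mM probenecid. Cpd 20 min RT, then α,β-meATP 1 μM (P2X3) / 5 μM (P2X2/3). Peak Ca2+ signal, nonlinear regression.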

human P2X2/3 receptor = target: T2, human P2X2/3 receptor (Homo sapiens, UniProt P56373+Q9UBL9); experiment: P2X3/P2X2/3 FLIPR (Fluorometric Imaging Plate Reader) Assay, P2X2/3; format: cell-based; conditions: CHO-K1 cells transfected with human P2X2/3; agonist α,β-meATP 5 μM; Table 1; read-out: P2X2/3 pKi (converted)
T2 construct: expressed in transfected cells; host or cells: CHO-K1
T2 sequence (Q9UBL9 1-471): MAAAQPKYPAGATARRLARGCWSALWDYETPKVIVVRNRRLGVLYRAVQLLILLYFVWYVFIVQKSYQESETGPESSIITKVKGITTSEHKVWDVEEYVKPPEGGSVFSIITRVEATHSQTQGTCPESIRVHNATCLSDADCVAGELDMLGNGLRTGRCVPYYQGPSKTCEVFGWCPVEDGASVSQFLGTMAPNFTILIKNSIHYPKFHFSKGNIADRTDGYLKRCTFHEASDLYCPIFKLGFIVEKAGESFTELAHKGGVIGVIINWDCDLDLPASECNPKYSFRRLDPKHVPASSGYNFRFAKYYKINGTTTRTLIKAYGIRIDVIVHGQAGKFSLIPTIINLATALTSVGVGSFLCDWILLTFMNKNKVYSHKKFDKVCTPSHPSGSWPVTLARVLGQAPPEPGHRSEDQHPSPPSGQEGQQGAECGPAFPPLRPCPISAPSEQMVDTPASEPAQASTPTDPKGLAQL
T2 sequence (P56373 1-397): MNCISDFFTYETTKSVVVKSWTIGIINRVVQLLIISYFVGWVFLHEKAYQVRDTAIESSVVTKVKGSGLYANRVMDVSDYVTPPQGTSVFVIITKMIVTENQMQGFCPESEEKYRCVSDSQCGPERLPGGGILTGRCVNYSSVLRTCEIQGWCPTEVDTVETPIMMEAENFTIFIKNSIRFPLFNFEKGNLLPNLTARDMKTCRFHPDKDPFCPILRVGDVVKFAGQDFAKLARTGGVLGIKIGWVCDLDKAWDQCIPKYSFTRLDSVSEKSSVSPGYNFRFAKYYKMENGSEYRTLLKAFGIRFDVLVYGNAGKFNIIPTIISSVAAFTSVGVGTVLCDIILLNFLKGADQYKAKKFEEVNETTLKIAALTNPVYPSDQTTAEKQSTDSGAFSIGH
Summary of the method: as §1

| SMILES | Ki (rat P2X3 receptor) [nM] | Ki (human P2X2/3 receptor) [nM] |
| --- | --- | --- |
| Cc1ccc(-c2cc(C(=O)NCc3cnc(C)cn3)cc(-n3ncnc3C(C)C)c2)nc1 [Compound 132, 3-(5-Isopropyl-[1,2,4]triazol-1-yl)-N-(5-methyl-pyrazin-2-ylmethyl)-5-(5-methyl-pyridin-2-yl)-benzamide] | 3.31 | 38.9 |
| Cc1cnc(CNC(=O)c2cc(-c3ccc(Cl)cn3)cc(-n3ncnc3CC(C)C)c2)cn1 [Compound 89, 3-(5-Chloro-pyridin-2-yl)-5-(5-isobutyl-[1,2,4]triazol-1-yl)-N-(5-methyl-pyrazin-2-ylmethyl)-benzamide] | 4.17 | 89.1 |
| Cc1ccc(-c2cc(C(=O)NC(C)c3cnccn3)cc(-c3ncnn3C(C)C)c2)cc1 (stereo not drawn) [Compound 53, 5-(2-Isopropyl-2H-[1,2,4]triazol-3-yl)-4′-methyl-biphenyl-3-carboxylic acid (1-pyrazin-2-yl-ethyl)-amide] | 12.9 | 309 |
| Cc1ccc(-c2cc(C(=O)N[C@@H](C)CO)cc(-n3ncnc3C3CC3)c2)nc1 [Compound 59, 3-(5-Cyclopropyl-[1,2,4]triazol-1-yl)-N-(2-hydroxy-1-methyl-ethyl)-5-(5-methyl-pyridin-2-yl)-benzamide] | 77.6 | 6170 |
| Cc1ccc(-c2cc(C(=O)N[C@@H](C)CO)cc(-n3nncc3C(C)C)c2)cc1 [Compound 8, 5-(5-Isopropyl-[1,2,3]triazol-1-yl)-4′-methyl-biphenyl-3-carboxylic acid ((S)-2-hydroxy-1-methyl-ethyl)-amide] | 3.72 | 309 |
| Cc1ccc(-c2cc(C(=O)NCc3cnc(C)cn3)cc(-n3ncnc3C(C)N(C)C)c2)cc1 (stereo not drawn) [Compound 62, 5-[5-(1-Dimethylamino-ethyl)-[1,2,4]triazol-1-yl]-4′-methyl-biphenyl-3-carboxylic acid (5-methyl-pyrazin-2-ylmethyl)-amide] | 5.25 | 43.7 |
| Cc1ccc(-c2cc(C(=O)NCc3cnc(C)cn3)cc(-n3ncnc3C(C)(C)C)c2)nc1 [Compound 82, 3-(5-tert-Butyl-[1,2,4]triazol-1-yl)-N-(5-methyl-pyrazin-2-ylmethyl)-5-(5-methyl-pyridin-2-yl)-benzamide] | 6.03 | 1350 |
| COC(C)c1ncnn1-c1cc(C(=O)NC(C)c2cnccn2)cc(-c2ccc(C)cc2)c1 (stereo not drawn) [Compound 48, 5-[5-(1-Methoxy-ethyl)-[1,2,4]triazol-1-yl]-4′-methyl-biphenyl-3-carboxylic acid (1-pyrazin-2-yl-ethyl)-amide] | 3.89 | 43.7 |
| Cc1ccc(-c2cc(C(=O)NC(C)CO)cc(-n3nc(C)nc3C(C)C)c2)cc1 (stereo not drawn) [Compound 28, 5-(5-Isopropyl-3-methyl-[1,2,4]triazol-1-yl)-4′-methyl-biphenyl-3-carboxylic acid (2-hydroxy-1-methyl-ethyl)-amide] | 64.6 | 10000 |
| Cc1ccc(-c2cc(C(=O)NCc3cnc(C)cn3)cc(-n3ncnc3C(F)(F)F)c2)nc1 [Compound 99, N-(5-Methyl-pyrazin-2-ylmethyl)-3-(5-methyl-pyridin-2-yl)-5-(5-trifluoromethyl-[1,2,4]triazol-1-yl)-benzamide] | 3.24 | 36.3 |
| Cc1ccc(-c2cc(C(=O)NC(C)CN(C)C)cc(-n3ncnc3C(C)N(C)C)c2)cc1 (stereo not drawn) [Compound 103, 5-[5-(1-Dimethylamino-ethyl)-[1,2,4]triazol-1-yl]-4′-methyl-biphenyl-3-carboxylic acid (2-dimethylamino-1-methyl-ethyl)-amide] | 724 | 10000 |
| CCn1cc(-c2cc(C(=O)NC(C)c3cnccn3)cc(-c3ccc(C)cc3)c2)nn1 (stereo not drawn) [Compound 41, 5-(1-Ethyl-1H-[1,2,3]triazol-4-yl)-4′-methyl-biphenyl-3-carboxylic acid (1-pyrazin-2-yl-ethyl)-amide] | 182 | 7410 |
| Cc1cnc(CNC(=O)c2cc(-c3ccc(Cl)cn3)cc(-n3ncnc3CF)c2)cn1 [Compound 92, 3-(5-Chloro-pyridin-2-yl)-5-(5-fluoromethyl-[1,2,4]triazol-1-yl)-N-(5-methyl-pyrazin-2-ylmethyl)-benzamide] | 21.4 | 2570 |
| Cc1ccc(-c2cc(C(=O)NC(C)CO)cc(-n3cnnc3C(C)C)c2)cc1 (stereo not drawn) [Compound 26, 5-(3-Isopropyl-[1,2,4]triazol-4-yl)-4′-methyl-biphenyl-3-carboxylic acid (2-hydroxy-1-methyl-ethyl)-amide] | 155 | 10000 |
| Cc1ccc(-c2cc(C(=O)N[C@@H](C)CO)cc(-n3ncnc3C(F)(F)F)c2)cc1 [Compound 65, 4′-Methyl-5-(5-trifluoromethyl-[1,2,4]triazol-1-yl)-biphenyl-3-carboxylic acid ((S)-2-hydroxy-1-methyl-ethyl)-amide] | 6.76 | 2000 |
| Cc1ccc(-c2cc(-n3ncnc3C(F)(F)F)cc(C(=O)N[C@@H](C)CO)c2F)nc1 [Compound 167, 2-Fluoro-N-((S)-2-hydroxy-1-methyl-ethyl)-3-(5-methyl-pyridin-2-yl)-5-(5-trifluoromethyl-[1,2,4]triazol-1-yl)-benzamide] | 2.51 | 12 |
| CC(C)c1ncnn1-c1cc(C(=O)NC(C)c2cnccn2)cc(-c2ccc(Cl)cn2)c1 (stereo not drawn) [Compound 120, 3-(5-Chloro-pyridin-2-yl)-5-(5-isopropyl-[1,2,4]triazol-1-yl)-N-(1-pyrazin-2-yl-ethyl)-benzamide] | 7.59 | 132 |
| CCc1ncnn1-c1cc(C(=O)NCc2cnc(C)cn2)cc(-c2ccc(C)cn2)c1 [Compound 129, 3-(5-Ethyl-[1,2,4]triazol-1-yl)-N-(5-methyl-pyrazin-2-ylmethyl)-5-(5-methyl-pyridin-2-yl)-benzamide] | 4.9 | 79.4 |
| Cc1ccc(-c2cc(C(=O)N[C@@H](C)CO)cc(-c3ncnn3C(C)C)c2)cc1 [Compound 54, 5-(2-Isopropyl-2H-[1,2,4]triazol-3-yl)-4′-methyl-biphenyl-3-carboxylic acid (2-hydroxy-1-methyl-ethyl)-amide] | 21.4 | 2450 |
| Cc1ccc(-c2cc(C(=O)NC(C)c3cnccn3)cc(-n3ncnc3C(F)(F)F)c2)nc1 (stereo not drawn) [Compound 98, 3-(5-Methyl-pyridin-2-yl)-N-(1-pyrazin-2-yl-ethyl)-5-(5-trifluoromethyl-[1,2,4]triazol-1-yl)-benzamide] | 2.24 | 45.7 |
| CC(C)Cc1ncnn1-c1cc(C(=O)N[C@@H](C)CO)cc(-c2ccc(Cl)cn2)c1 [Compound 90, 3-(5-Chloro-pyridin-2-yl)-N-((S)-2-hydroxy-1-methyl-ethyl)-5-(5-isobutyl-[1,2,4]triazol-1-yl)-benzamide] | 4.07 | 646 |
| CCn1cnnc1-c1cc(C(=O)NC(C)c2cnccn2)cc(-c2ccc(C)cc2)c1 (stereo not drawn) [Compound 43, 5-(4-Ethyl-4H-[1,2,4]triazol-3-yl)-4′-methyl-biphenyl-3-carboxylic acid (1-pyrazin-2-yl-ethyl)-amide] | 7.76 | 813 |
| CCOCCc1ncnn1-c1cc(C(=O)NCc2cnc(C)cn2)cc(-c2ccc(C)cn2)c1 [Compound 149, 3-[5-(2-Ethoxy-ethyl)-[1,2,4]triazol-1-yl]-N-(5-methyl-pyrazin-2-ylmethyl)-5-(5-methyl-pyridin-2-yl)-benzamide] | 20 | 7240 |
| CC(NC(=O)c1cc(-c2ccc(Cl)cc2)cc(-n2ncnc2N(C)C)c1)c1cnccn1 (stereo not drawn) [Compound 44, 4′-Chloro-5-(5-dimethylamino-[1,2,4]triazol-1-yl)-biphenyl-3-carboxylic acid (1-pyrazin-2-yl-ethyl)-amide] | 81.3 | 759 |
